{"source": "patent US9439920B2", "about": "“Composition for the management of nausea and vomiting” (Duchesnay Inc., priority 2013, dated 2016)", "assay_type_in_all_cases": "in vivo, human", "key": {"[1]": {"experiment": "Randomized controlled bioavailability study in healthy women, three way cross over (Example 2)", "source_text": "Three Way Cross Over Design.\nBioavailability; Tmax, Cmax and AUC0-t between each treatment."}, "[2]": {"experiment": "Another study with different doses of R5P (5, 10 or 20 mg) in healthy women", "conditions": "8 healthy women, controls not administered with R5P", "procedure": "In another study, different doses of R5P were tested: 5, 10 or 20 mg of R5P (i.e. equivalent to the formulations administered to Treatment group C above, with the exception that 5, 10 or 20 mg of R5P was used rather than 40 mg R5P; 8 healthy women for each dose), and the PLP levels were compared to those measured in control healthy women not administered with R5P (24 subjects, equivalent to Treatment group A above)."}, "[3]": {"system": "pregnant women suffering from nausea and vomiting of pregnancy", "experiment": "Randomized controlled efficacy trial of Diclectin vs. placebo in pregnant women: plasma levels vs PUQE score", "conditions": "pregnant women treated with Diclectin for 14 days", "procedure": "A randomized controlled efficacy trial of Diclectin® vs. placebo in pregnant women was carried out as follows, with the results shown in FIG. 1.\nTo assess the plasma levels of Doxylamine and PLP and the severity of nausea and vomiting of pregnancy symptoms in pregnant women treated with Diclectin®.\nThe demographic and medical characteristics of the subjects are as described in Koren et al., Am J Obstet Gynecol 2010; 203(6):571.e1-7.\nThe study design is as described in Koren et al., 2010, supra. Briefly, a randomized, double-blind, multicenter placebo controlled trial studying pregnant women suffering from nausea and vomiting of pregnancy, analyzed by intention to treat. Women received Diclectin (n=131) or placebo (n=125) for 14 days. Nausea and vomiting of pregnancy symptoms were evaluated daily using the pregnancy unique quantification of emesis scale (PUQE-24, Ebrahimi et al., J Obstet Gynaecol Can. 2009 September; 31(9):803-7)."}, "[4]": {"conditions": "co-administration of 40 mg of R5P"}}}
{"molecule": "Cc1cc2nc3c(=O)[nH]c(=O)nc-3n(C[C@H](O)[C@H](O)[C@H](O)COP(=O)(O)O)c2cc1C", "note": "[R5P, riboflavin-5-phosphate]", "values": [{"measurement": "general improvement in the pharmacokinetic profile of PLP", "setting": "[1]; administration of R5P", "result": "less inter-subject variations and decreased time to reach steady-state PLP levels"}, {"measurement": "PLP levels at 12h", "setting": "[1]; [4]", "result": "does not significantly affect"}, {"measurement": "increase in the plasma level of PLP (AUC 0-2 h) following administration of Pyridoxine", "setting": "[1]; [4]", "result": "faster increase in the plasma level of PLP"}, {"measurement": "PLP concentration (using AUC) over the period 0-12 h", "setting": "[1]; plasma, healthy women, fasted, compared with Diclectin (PA_DR), one-way ANOVA P>0.05", "result": "did not increase PLP levels significantly"}, {"measurement": "effect on PLP levels relative to controls", "setting": "[2]; 5 mg of R5P", "result": "no significant effect"}, {"measurement": "effect on PLP levels relative to controls", "setting": "[2]; 10 mg of R5P", "result": "no significant effect"}, {"measurement": "effect on pharmacokinetics of PLP relative to controls", "setting": "[2]; 20 mg of R5P", "result": "some improvement in the pharmacokinetics of PLP"}]}
{"molecule": "Cc1ncc(COP(=O)(O)O)c(C=O)c1O", "note": "[PLP, Pyridoxal 5-phosphate]", "values": [{"measurement": "relation of average plasma concentration to severity of NVP (PUQE score)", "setting": "[3]", "result": "correlates with a decrease in the severity of the NVP"}]}
{"molecule": "CN(C)CCOC(C)(c1ccccc1)c1ccccn1", "note": "(stereo not drawn) [Doxylamine, reference compound]", "values": [{"measurement": "relation of average plasma concentration to severity of NVP (PUQE score)", "setting": "[3]", "result": "correlates with a decrease in the severity of the NVP"}]}
